In patent US12139473B2, “Substituted-N-heteroaryl compounds and uses thereof” (Bionomics Limited, priority 2019, dated 2024):

Biological target: T1, hKv3.1 (Homo sapiens, UniProt P48547)
T1 construct: expressed in transfected cells
T1 sequence (P48547 1-511): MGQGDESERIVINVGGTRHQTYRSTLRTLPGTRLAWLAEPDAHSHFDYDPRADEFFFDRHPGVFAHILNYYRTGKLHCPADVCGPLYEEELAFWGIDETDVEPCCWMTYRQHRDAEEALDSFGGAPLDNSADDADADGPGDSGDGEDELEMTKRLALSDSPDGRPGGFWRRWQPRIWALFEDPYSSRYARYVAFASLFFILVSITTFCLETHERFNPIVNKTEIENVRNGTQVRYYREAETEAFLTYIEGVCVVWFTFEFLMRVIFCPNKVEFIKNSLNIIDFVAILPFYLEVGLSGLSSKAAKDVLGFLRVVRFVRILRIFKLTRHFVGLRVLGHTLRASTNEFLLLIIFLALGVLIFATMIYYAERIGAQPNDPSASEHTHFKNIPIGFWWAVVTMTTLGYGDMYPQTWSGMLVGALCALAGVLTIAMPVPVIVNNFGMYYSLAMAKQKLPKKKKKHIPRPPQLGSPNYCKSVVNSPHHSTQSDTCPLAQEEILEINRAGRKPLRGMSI
Experiment: Automated patch clamp electrophysiology (Patchliner), CHO/Kv3.1 cells
Format: cell-based
Conditions: 10 μM compound, hKv3.1 in CHO-K1, whole-cell; for Kv3.1 Activity at 10 μM Potentiation (%): peak current at voltage step of −10 mV vs vehicle (0.33% DMSO); for Kv3.1 Activity at 10 μM Voltage Shift (mV): voltage shift of the IV curve at V1/2
Protocol: hKv3.1, hKv3.2, hKv3.3, and hKv3.4 were stably expressed in CHO-K1 (Chinese hamster ovary) cells and kept under constant antibiotic selection. For in vitro assays, cells were maintained in appropriate growth medium at 37° C. and 5% CO2 in a humidified incubator.
hKv3.X expressing cells were plated in T-25 flasks for 3-4 days at 37° C. (no selection antibiotic) prior to use and grown to 80% confluence. Cells were washed twice with PBS (calcium and magnesium free) and detached with a 5-minute treatment at 37° C. with 2-3 mls of Accutase®. Cells were collected, and flask was washed in CHO-SFM II media (Life Technologies Gibco), centrifuged for 2 minutes at ˜110×g and resuspended to obtain a single cell suspension of ˜2-3×10^6 cells/ml.
The intracellular solution contained the following (in mM): KCl 50, NaCl 10, KF 60, EGTA 20, HEPES 10, adjusted to pH 7.2 with KOH and an osmolarity of 285 mOsmol. Seal enhancer was purchased from Nanion (80 mM NaCl, 3 mM KCl, 10 mM MgCl2, 35 mM CaCl2), 10 mM HEPES, pH7.4, 298 mOsmol. The external solution contained (in mM): NaCl 140, KCl 4, CaCl2) 2, MgCl2 1, HEPES 10, Glucose 5, adjusted to pH7.4 and an osmolarity of 298 mOsmol.
All compounds were initially tested at 10 uM at a final DMSO concentration of 0.33%. Compounds were dissolved in dimethylsulfoxide (DMSO) at a stock concentration of 30 mM. The compound was further diluted 1:10 to give a stock concentration of 3 mM in DMSO. The final assay solution was diluted 1:300 in External solution to give a final concentration of 10 uM. For the DMSO Control Buffer 30 uL of DMSO was added to 10 mL buffer.
All electrophysiological recordings were performed at ambient temperature (21-23° C.) using automated patch clamp (Patchliner, Nanion Technologies GmbH) in the whole-cell configuration.
Cell membrane potentials were held at −80 mV, and currents were evoked by voltage steps (1000 ms duration) from −60 to +60 mV in 10 mV increments. This was performed first with vehicle (0.33% DMSO) and then with 10 uM compound, after a 3-minute incubation period. Data was taken from 4 cells per assay.
The recordings were analysed and selected using peak current amplitude (>100 pA at the −10 mV voltage step) in the absence of compound to eliminate unsuitable cells from analysis. Peak current amplitude was measured and recorded for each voltage step and data was normalised to the maximum current at +60 mV. The normalised Kv3.x currents following addition of the compound were then compared with the currents recorded prior to compound addition (vehicle control). Positive modulation was determined as % potentiation at the voltage step of −10 mV=[current (cmpd)/current (veh)]*100−100. % potentiation≥50% was considered acceptable. In addition, voltage shift of the IV curve at V1/2 was measured. V1/2 of ≥−5 mV was also considered acceptable. IV curves were plotted in GraphPad Prism (software version 6.0) and fitted with a Boltzmann equation, where V1/2 is the voltage at half-maximal activation.

Kv3.1 Activity at 10 μM Potentiation (%) | Kv3.1 Activity at 10 μM Voltage Shift (mV) | Compound
25% | −0.9 mV | CCC1(CC)NC(=O)N(c2cc(Oc3ccc(C)c(OC)c3)ncn2)C1=O [Example 4, 3-[6-(3-methoxy-4-methyl-phenoxy)pyrimidin-4-yl]-5,5-diethyl-imidazolidine-2,4-dione]
3% | +0.4 mV | COc1cccc(Oc2cc(N3C(=O)NC(C)(C)C3=O)ncn2)c1 [Example 10, 3-[6-(3-methoxyphenoxy)pyrimidin-4-yl]-5,5-dimethyl-imidazolidine-2,4-dione]
8% | −1.3 mV | COc1ccc(Oc2cc(N3C(=O)NC(C)(C)C3=O)ncn2)cc1 [Example 11, 3-[6-(4-methoxyphenoxy)pyrimidin-4-yl]-5,5-dimethyl-imidazolidine-2,4-dione]
7% | −0.2 mV | COc1cc(C)cc(Oc2cc(N3C(=O)NC(C)(C)C3=O)ncn2)c1 [Example 17, 3-[6-(3-methyl-5-methoxy-phenoxy)pyrimidin-4-yl]-5,5-dimethyl-imidazolidine-2,4-dione]
53% | −2.7 mV | COc1ccc(C)c(Oc2cc(N3C(=O)NC(C)(C)C3=O)ncn2)c1 [Example 18, 3-[6-(2-methyl-5-methoxy-phenoxy)pyrimidin-4-yl]-5,5-dimethyl-imidazolidine-2,4-dione]
37% | −3.3 mV | COc1ccc(Oc2cc(N3C(=O)NC(C)(C)C3=O)ncn2)cc1C [Example 20, 3-[6-(3-methyl-4-methoxy-phenoxy)pyrimidin-4-yl]-5,5-dimethyl-imidazolidine-2,4-dione]
28% | −0.9 mV | CC1(C)NC(=O)N(c2cc(Oc3cccnc3)ncn2)C1=O [Example 23, 5,5-dimethyl-3-[6-(3-pyridyloxy)pyrimidin-4-yl]imidazolidine-2,4-dione]
17% | −2.2 mV | Cc1ccccc1Oc1cc(N2C(=O)NC(C)(C)C2=O)ncn1 [Example 26, 3-[6-(2-methylphenoxy)pyrimidin-4-yl]-5,5-dimethyl-imidazolidine-2,4-dione]
10% | −1.6 mV | Cc1ccc(Oc2cc(N3C(=O)NC(C)(C)C3=O)ncn2)cc1C [Example 29, 3-[6-(3,4-dimethylphenoxy)pyrimidin-4-yl]-5,5-dimethyl-imidazolidine-2,4-dione]

Second part, the compound before the results:

Compound | Kv3.1 Activity at 10 μM Potentiation (%) | Kv3.1 Activity at 10 μM Voltage Shift (mV)
CC[C@@]1(C)NC(=O)N(c2cc(Oc3ccc(C)c(OC)c3)ncn2)C1=O [Example 2, (5R)-5-ethyl-3-[6-(3-methoxy-4-methyl-phenoxy)pyrimidin-4-yl]-5-methyl-imidazolidine-2,4-dione] | 16% | −1.9 mV
CC[C@]1(C)NC(=O)N(c2cc(Oc3ccc(C)c(OC)c3)ncn2)C1=O [Example 3, (5S)-5-ethyl-3-[6-(3-methoxy-4-methyl-phenoxy)pyrimidin-4-yl]-5-methyl-imidazolidine-2,4-dione] | 34% | −2.1 mV
COc1cc(Oc2cc(N3C(=O)NC4(CCC4)C3=O)ncn2)ccc1C [Example 5, 7-[6-(3-methoxy-4-methyl-phenoxy)pyrimidin-4-yl]-5,7-diazaspiro[3.4]octane-6,8-dione] | 35% | −3.2 mV
COc1cc(Oc2cc(N3C(=O)N[C@](C)(C(C)C)C3=O)ncn2)ccc1C [Example 8, (5R)-5-isopropyl-3-[6-(3-methoxy-4-methyl-phenoxy)pyrimidin-4-yl]-5-methyl-imidazolidine-2,4-dione] | 48% | −3.1 mV
COc1ccccc1Oc1cc(N2C(=O)NC(C)(C)C2=O)ncn1 [Example 9, 3-[6-(2-methoxyphenoxy)pyrimidin-4-yl]-5,5-dimethyl-imidazolidine-2,4-dione] | 22% | −2.2 mV
COc1ccc(Oc2cc(N3C(=O)NC(C)(C)C3=O)ncn2)cc1F [Example 12, 3-[6-(3-fluoro-4-methoxy-phenoxy)pyrimidin-4-yl]-5,5-dimethyl-imidazolidine-2,4-dione] | 13% | −0.3 mV
COc1c(C)cccc1Oc1cc(N2C(=O)NC(C)(C)C2=O)ncn1 [Example 19, 3-[6-(2-methoxy-3-methyl-phenoxy)pyrimidin-4-yl]-5,5-dimethyl-imidazolidine-2,4-dione] | 15% | −1.7 mV
COc1cc(C)ccc1Oc1cc(N2C(=O)NC(C)(C)C2=O)ncn1 [Example 21, 3-[6-(2-methoxy-4-methyl-phenoxy)pyrimidin-4-yl]-5,5-dimethyl-imidazolidine-2,4-dione] | 29% | −1.4 mV
Cc1ccc(Oc2cc(N3C(=O)NC(C)(C)C3=O)ncn2)cc1C#N [Example 22, 5-[6-(4,4-dimethyl-2,5-dioxo-imidazolidin-1-yl)pyrimidin-4-yl]oxy-2-methyl-benzonitrile] | 31% | −2.3 mV
Cc1ccc(Oc2cc(N3C(=O)NC(C)(C)C3=O)ncn2)cn1 [Example 24, 5,5-dimethyl-3-[6-[(6-methyl-3-pyridyl)oxy]pyrimidin-4-yl]imidazolidine-2,4-dione] | 33% | −4.0 mV
COc1cncc(Oc2cc(N3C(=O)NC(C)(C)C3=O)ncn2)c1 [Example 25, 5,5-dimethyl-3-[6-[(5-methoxy-3-pyridyl)oxy]pyrimidin-4-yl]imidazolidine-2,4-dione] | 6% | −0.1 mV
Cc1cccc(Oc2cc(N3C(=O)NC(C)(C)C3=O)ncn2)c1 [Example 27, 3-[6-(3-methylphenoxy)pyrimidin-4-yl]-5,5-dimethyl-imidazolidine-2,4-dione] | −17% | +2.11 mV
Cc1ccc(Oc2cc(N3C(=O)NC(C)(C)C3=O)ncn2)cc1 [Example 28, 3-[6-(4-methylphenoxy)pyrimidin-4-yl]-5,5-dimethyl-imidazolidine-2,4-dione] | 3% | −1.1 mV
